This note sets out measurements from patent US11613556B2, “Oxysterols and methods of use thereof” (Sage Therapeutics, Inc., priority 2016, dated 2023).

Each structure is given as a SMILES string. pEC50: −log10 of the molar value. Like-named read-outs stand apart in the source and are kept apart here. A value given as a limit tells only on which side of the number the result lay.

What all share (type): cell-based
Assay [1] concerns the target glutamate-activated channels of the GRIN1/2A subtype stably transfected in HEK 293 cells (Homo sapiens (Human), UniProt Q05586+Q12879). Briefly: Automated patch-clamp system (QPatch HTX), percent potentiation at 1 μM. Conditions: HEK293, 1 μM test compound, 300 μM NMDA with 8 μM glycine, HEK 293 GRIN1/2A, read-out: GluN2A PCA % potentiation at 1 μM. The protocol: (§1) NMDA potentiation in mammalian cells which expressed NMDA receptors was assessed using the automatic patch-clamp system can be used determine the NAM activity of compounds as described below. An whole cell patch-clamp system can be used determine the PAM activity of compounds as described below.
Automated Patch-Clamp System (OPatch HTX):
In this study, HEK 293 cells stably transfected with glutamate-activated channels of the GRIN1/2A subtype will be used together with submaximal NMDA concentrations (300 μM NMDA, co-application with 8 μM Glycine) to investigate the negative allosteric modulation of the test compounds.
In general, cells will be passaged at a confluence of about 80% to […]. For electrophysiological measurements cells will be harvested at a confluence of about 80% to 90% from sterile culture flasks containing culture complete medium. Cells will be transferred as suspension in PBS to the QPatch 16X or QPatch HTX system to the centrifuge/washer directly.
Standard Laboratory Conditions: Cells will be incubated at 37° C. in a humidified atmosphere with 5% CO2 (rel. humidity about 95%).
Culture media: The cells will be continuously maintained in and passaged in sterile culture flasks containing a 1:1 mixture of Dulbecco's modified eagle medium and nutrient mixture F-12 (D-MEM/F-12 1×, liquid, with L-Glutamine) supplemented with 10% fetal bovine serum, 1% Penicillin/Streptomycin solution, and 50 μM AP-5 blocker.
Antibiotics: The complete medium as indicated above is supplemented with 100 μg/mL hygromycin, 15 μg/mL blasticidin and 1 μg/mL puromycin.
Induction of Expression: 2.5 μg/mL tetracycline is added 24 h before start of experiments.
Dose levels are in terms of test compounds, as supplied. Vehicle will be added to achieve a stock concentration of 10 mM (storage at −10° C. to −30° C.). A further stock solutions of 1.0 mM will be prepared in DMSO. Details of stock solution usage (thawing, dose formulations) will be documented in the raw data. The time period of stock solution usage will be detailed in the report.
Test Compound Concentrations
One test concentration of 1.0 μM will be tested.
All test solutions will be prepared by diluting the stock solutions with either Mg-free bath solution only or Mg-free bath solution containing NMDA (300 μM) and glycine (8.0 μM) shortly prior to the electrophysiological experiments and kept at room temperature (19° C. to 30° C.) when in use. 0.1% DMSO will be used as vehicle.
Frequency of preparation: For each test concentration, fresh solutions of test compounds will be prepared every day.
Stability of dose formulation: All preparation times will be documented in the raw data. Any observations regarding instability of test compounds will be mentioned in the raw data.
Storage of dose formulation: On the day of experimentation dose formulations will be maintained at room temperature (19° C. to 30° C.) when in use.
For preparing the experiments and for formation of the giga-ohm-seal, the following standard bath solution will be used:
Sodium Chloride: 137 mM; Potassium Chloride: 4 mM; Calcium Chloride: 1.8 mM; Magnesium Chloride: 1 mM; HEPES: 10 mM; D-Glucose: 10 mM; Cremophor: 0.02%; pH (NaOH): 7.4
The 1× bath solution will be prepared by diluting 10× bath solution without Glucose and 100× Glucose solution with water at least every 7 days. Both stock solutions have been prepared prior to the experimental start of the present study and stored at 1° C. to 9° C. (10× bath solution) or −10° C. to −30° (100× Glucose solution). The batch number(s) of the bath solution(s) used in the experiments will be documented in the raw data. When in use, the 1× bath solution will be kept at room temperature (19° C. to 30° C.). When not in use, the 1× bath solution will be stored at 1° C. to 9° C.
After the giga-seal was formed the following Mg-free bath solution will be used:
Sodium Chloride: 137 mM; Potassium Chloride: 4 mM; Calcium Chloride; 2.8 mM; HEPES: 10 mM; D-Glucose: 10 mM; Cremophor: 0.02%; pH (NaOH): 7.4 […]

Assay [2] has as its target GluN1/GluN2A glutamate receptors (human GRIN1/GRIN2A) expressed in HEK293 cells (Homo sapiens (Human), UniProt Q05586+Q12879). Briefly: Whole-cell patch clamp of mammalian cells (Ionworks Barracuda), positive allosteric modulation, GluN1/GluN2A. The settings on record: for Emax: read-out: GluN2A PCA EMax (%). The protocol: as §1
(§2) The measurements were performed using Ion Works Barracuda platform following this procedure:
(§3) Electrophysiological Procedures: • a) Intracellular solution (mM): 50 mM CsCl, 90 mM CsF, 2 mM MgCl2, 5 mM EGTA, 10 mM HEPES. Adjust to pH 7.2 with CsOH. • b) Extracellular solution, HB-PS (composition in mM): NaCl, 137; KCl, 1.0; CaCl2, 5; HEPES, 10; Glucose, 10; pH adjusted to 7.4 with NaOH (refrigerated until use). • c) Holding potential: −70 mV, potential during agonist/PAM application: −40 mV.
(§4) Recording Procedure: • a) Extracellular buffer will be loaded into the PPC plate wells (11 μL per well). Cell suspension will be pipetted into the wells (9 μL per well) of the PPC planar electrode. • b) Whole-cell recording configuration will be established via patch perforation with membrane currents recorded by on-board patch clamp amplifiers. • c) Two recordings (scans) will be performed. First, during pre-application of test article alone (duration of pre-application—5 min) and second, during test articles and agonist (EC20 L-glutamate and 30 μM glycine) co-application to detect positive modulatory effects of the test article.
(§5) Test Article Administration: The first pre-application will consist of the addition of 20 μL of 2× concentrated test article solution and, second, of 20 μL of 1× concentrated test article and agonist at 10 μL/s (2 second total application time).
(§6) Potentiating Effect of Positive Allosteric Modulators (PAM) on the Channel
(§7) The maximal amplitude of the evoked currents are measured and defined as Peak Current Amplitude (PCA).
Background: The patch-clamp technique gives a direct electrical read-out from membranes.

For assay [3], the target named is GluN2B glutamate receptors expressed in mammalian cells (Homo sapiens (Human), UniProt Q05586+Q13224). Briefly: Whole-cell patch clamp of mammalian cells (Ionworks Barracuda), positive allosteric modulation, GluN2B. Conditions: for Emax: read-out: GluN2B PCA EMax (%). The protocol: as §1, §2, §3, §4, §5, §6, §7
Setting [4] is: peak current amplitude, co-application with EC20 L-glutamate and 30 μM glycine, HEK293.
Setting [5] is: peak current amplitude, co-application with EC20 L-glutamate and 30 μM glycine, read-out: GluN2B PCA EC50.
Where [6] appears, read: peak current amplitude, co-application with EC20 L-glutamate and 30 μM glycine.

Sequence of GluN2B glutamate receptors expressed in mammalian cells (Q13224 27-1484, other chains not shown): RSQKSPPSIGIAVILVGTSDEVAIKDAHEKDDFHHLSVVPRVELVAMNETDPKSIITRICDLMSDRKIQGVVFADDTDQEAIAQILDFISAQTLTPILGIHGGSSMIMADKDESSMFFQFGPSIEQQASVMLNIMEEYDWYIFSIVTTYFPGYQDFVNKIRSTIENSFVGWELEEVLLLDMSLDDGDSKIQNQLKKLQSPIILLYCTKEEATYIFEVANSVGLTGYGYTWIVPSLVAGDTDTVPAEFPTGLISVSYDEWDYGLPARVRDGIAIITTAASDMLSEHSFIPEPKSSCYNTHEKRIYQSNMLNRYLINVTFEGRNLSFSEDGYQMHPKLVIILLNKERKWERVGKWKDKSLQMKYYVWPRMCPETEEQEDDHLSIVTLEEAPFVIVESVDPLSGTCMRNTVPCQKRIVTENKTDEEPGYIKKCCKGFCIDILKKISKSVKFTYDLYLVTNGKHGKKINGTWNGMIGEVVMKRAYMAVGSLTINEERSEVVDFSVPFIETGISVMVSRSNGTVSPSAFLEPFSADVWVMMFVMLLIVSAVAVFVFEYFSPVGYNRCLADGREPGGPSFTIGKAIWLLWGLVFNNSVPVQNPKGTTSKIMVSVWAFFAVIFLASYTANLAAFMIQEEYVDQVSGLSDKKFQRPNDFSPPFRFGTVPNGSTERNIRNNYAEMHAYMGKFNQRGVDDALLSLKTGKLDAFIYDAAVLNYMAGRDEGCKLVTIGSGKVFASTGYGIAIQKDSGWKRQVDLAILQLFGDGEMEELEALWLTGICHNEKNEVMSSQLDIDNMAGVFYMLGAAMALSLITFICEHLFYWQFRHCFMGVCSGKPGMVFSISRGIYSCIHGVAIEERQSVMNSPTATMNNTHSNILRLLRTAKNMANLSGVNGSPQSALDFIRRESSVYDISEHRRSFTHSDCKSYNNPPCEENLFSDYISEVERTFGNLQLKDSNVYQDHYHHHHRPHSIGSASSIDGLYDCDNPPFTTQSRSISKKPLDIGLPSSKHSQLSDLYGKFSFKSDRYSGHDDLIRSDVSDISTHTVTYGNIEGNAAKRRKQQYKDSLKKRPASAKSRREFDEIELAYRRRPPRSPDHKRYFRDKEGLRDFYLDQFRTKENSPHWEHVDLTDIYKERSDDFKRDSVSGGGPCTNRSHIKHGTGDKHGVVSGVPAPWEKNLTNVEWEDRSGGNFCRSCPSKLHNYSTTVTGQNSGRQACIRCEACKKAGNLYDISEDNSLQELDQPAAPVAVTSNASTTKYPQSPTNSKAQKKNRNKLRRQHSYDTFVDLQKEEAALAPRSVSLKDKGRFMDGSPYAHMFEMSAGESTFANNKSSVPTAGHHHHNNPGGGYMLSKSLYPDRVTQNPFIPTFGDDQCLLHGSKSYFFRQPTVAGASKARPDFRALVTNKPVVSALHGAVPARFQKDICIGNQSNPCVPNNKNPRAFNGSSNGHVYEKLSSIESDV
Sequence of GluN1/GluN2A glutamate receptors (human GRIN1/GRIN2A) expressed in HEK293 cells (Q12879 whole entry, looked up, other chains not shown): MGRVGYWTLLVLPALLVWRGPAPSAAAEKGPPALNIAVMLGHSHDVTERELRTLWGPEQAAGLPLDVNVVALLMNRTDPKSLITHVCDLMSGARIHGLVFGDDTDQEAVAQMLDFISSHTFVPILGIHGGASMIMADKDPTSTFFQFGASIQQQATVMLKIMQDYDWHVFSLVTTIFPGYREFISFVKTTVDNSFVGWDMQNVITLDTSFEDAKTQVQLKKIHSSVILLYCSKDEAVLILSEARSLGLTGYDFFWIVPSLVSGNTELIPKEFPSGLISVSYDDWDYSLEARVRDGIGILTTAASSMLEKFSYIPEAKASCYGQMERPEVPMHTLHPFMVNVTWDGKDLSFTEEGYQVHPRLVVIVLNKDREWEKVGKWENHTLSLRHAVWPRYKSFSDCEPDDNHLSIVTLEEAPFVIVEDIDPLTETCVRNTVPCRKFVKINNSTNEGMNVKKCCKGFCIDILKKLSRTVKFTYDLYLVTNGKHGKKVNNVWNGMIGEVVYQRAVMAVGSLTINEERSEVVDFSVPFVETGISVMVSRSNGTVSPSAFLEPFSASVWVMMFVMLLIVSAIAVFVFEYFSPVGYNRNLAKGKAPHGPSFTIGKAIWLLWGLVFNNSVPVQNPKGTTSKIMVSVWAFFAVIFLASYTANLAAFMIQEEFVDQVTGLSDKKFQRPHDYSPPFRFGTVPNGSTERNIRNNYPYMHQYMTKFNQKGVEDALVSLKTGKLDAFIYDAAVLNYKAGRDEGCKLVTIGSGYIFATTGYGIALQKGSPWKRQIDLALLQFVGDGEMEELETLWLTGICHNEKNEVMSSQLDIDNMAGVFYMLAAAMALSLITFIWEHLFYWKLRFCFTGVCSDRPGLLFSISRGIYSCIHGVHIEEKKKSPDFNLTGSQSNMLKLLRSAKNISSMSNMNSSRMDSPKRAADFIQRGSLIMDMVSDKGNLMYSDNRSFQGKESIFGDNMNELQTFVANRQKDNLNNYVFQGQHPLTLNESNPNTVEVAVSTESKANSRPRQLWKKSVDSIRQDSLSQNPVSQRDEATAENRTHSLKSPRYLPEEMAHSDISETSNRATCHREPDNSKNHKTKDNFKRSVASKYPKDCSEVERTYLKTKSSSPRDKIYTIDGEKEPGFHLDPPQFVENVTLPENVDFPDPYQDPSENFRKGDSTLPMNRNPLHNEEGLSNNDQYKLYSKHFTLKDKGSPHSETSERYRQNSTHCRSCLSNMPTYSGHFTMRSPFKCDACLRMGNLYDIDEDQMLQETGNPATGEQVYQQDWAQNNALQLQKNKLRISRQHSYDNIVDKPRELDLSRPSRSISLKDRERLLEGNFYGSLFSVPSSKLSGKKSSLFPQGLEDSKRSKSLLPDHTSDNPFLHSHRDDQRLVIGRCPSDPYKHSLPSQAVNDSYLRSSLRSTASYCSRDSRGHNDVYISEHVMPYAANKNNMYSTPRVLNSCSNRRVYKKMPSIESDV
Sequence of glutamate-activated channels of the GRIN1/2A subtype stably transfected in HEK 293 cells (Q12879 whole entry, looked up, other chains not shown): as above

Turning to `CC(C)CC[C@@H](O)[C@@H](C)[C@H]1CC[C@H]2[C@@H]3CC[C@H]4C[C@@](C)(O)CC[C@@H]4[C@H]3CC[C@]12C` [Compound 88, (3S,5S,8R,9R,10S,13S,14S,17R)-17-((2S,3R)-3-hydroxy-6-methylheptan-2-yl)-3,13-dimethylhexadecahydro-1H-cyclopenta[a]phenanthren-3-ol], the activation at 1 µM in assay [1] was -40 to -10%.

Turning to `CC[C@]1(O)CC[C@@]2(C)[C@H](CC[C@@H]3[C@@H]2CC[C@]2(C)[C@@H]([C@H](C)[C@H](O)C(F)(F)F)CC[C@@H]32)C1` [Compound 56, (3S,5R,8R,9S,10S,13S,14S,17R)-3-ethyl-10,13-dimethyl-17-((2S,3S)-4,4,4-trifluoro-3-hydroxybutan-2-yl)hexadecahydro-1H-cyclopenta[a]phenanthren-3-ol], in assay [1], the activation at 1 µM is under -40%.

With `COC[C@]1(O)CC[C@H]2[C@H](CC[C@@H]3[C@@H]2CC[C@]2(C)[C@@H]([C@H](C)[C@@H](O)C(F)(F)F)CC[C@@H]32)C1` [Compound 45, (3S,5R,8R,9R,10S,13S,14S,17R)-3-(methoxymethyl)-13-methyl-17-((2S,3R)-4,4,4-trifluoro-3-hydroxybutan-2-yl)hexadecahydro-1H-cyclopenta[a]phenanthren-3-ol], the activation at 1 µM in assay [1] was -40 to -10%.

Turning to `CC[C@]1(O)CC[C@@]2(C)[C@@H](CC[C@@H]3[C@@H]2CC[C@]2(C)[C@@H]([C@H](C)[C@@H](O)C4CC4)CC[C@@H]32)C1` [Compound 10, (3S,5S,8R,9S,10S,13S,14S,17R)-17-((1S,2S)-1-cyclopropyl-1-hydroxypropan-2-yl)-3-ethyl-10,13-dimethylhexadecahydro-1H-cyclopenta[a]phenanthren-3-ol], the activation at 1 µM in assay [1] is under -40%.

For `CC(C)CC[C@@H](O)[C@@H](C)[C@H]1CC[C@H]2[C@@H]3CC[C@H]4C[C@](O)(C(F)(F)F)CC[C@]4(C)[C@H]3CC[C@]12C` [Compound 85, (3S,5S,8R,9S,10S,13S,14S,17R)-17-((2S,3R)-3-hydroxy-6-methylheptan-2-yl)-10,13-dimethyl-3-(trifluoromethyl)hexadecahydro-1H-cyclopenta[a]phenanthren-3-ol], the activation at 1 µM in assay [1] was -10 to 10%.

Regarding `CC[C@]1(O)CC[C@@]2(C)[C@@H](CC[C@@H]3[C@@H]2CC[C@]2(C)[C@@H]([C@H](C)[C@H](O)C4CC4)CC[C@@H]32)C1` [Compound 90, (3S,5S,8R,9S,10S,13S,14S,17R)-17-((1R,2S)-1-cyclopropyl-1-hydroxypropan-2-yl)-3-ethyl-10,13-dimethylhexadecahydro-1H-cyclopenta[a]phenanthren-3-ol], in assay [1], the activation at 1 µM is -10 to 10%.

Consider `CC(C)CC[C@@H](O)[C@@H](C)[C@H]1CC[C@H]2[C@@H]3CC=C4C[C@@](C)(O)CC[C@]4(C)[C@H]3CC[C@]12C` [Compound 30, (3S,8S,9S,10R,13S,14S,17R)-17-((2S,3R)-3-hydroxy-6-methylheptan-2-yl)-3,10,13-trimethyl-2,3,4,7,8,9,10,11,12,13,14,15,16,17-tetradecahydro-1H-cyclopenta[a]phenanthren-3-ol], for which the pEC50 in assay [2] and in assay [3] (setting [5]) was under 6.00 in each case. Also, the maximum response (Emax) in assay [2] (setting [4]) and in assay [3] (setting [6]) was 100 to 500% throughout.

As to `CC[C@]1(O)CC[C@@]2(C)[C@@H](CC[C@@H]3[C@@H]2CC[C@]2(C)[C@@H]([C@H](C)[C@@H](O)CCC(C)C)CC[C@@H]32)C1` [Compound 29, (3S,5S,8R,9S,10S,13S,14S,17R)-3-ethyl-17-((2S,3S)-3-hydroxy-6-methylheptan-2-yl)-10,13-dimethylhexadecahydro-1H-cyclopenta[a]phenanthren-3-ol], the pEC50 (in general, −log10 of the EC50, conventionally taken in molar units) is under 6.00 in assay [2] (peak current amplitude, co-application with EC20 L-glutamate and 30 μM glycine, HEK293, read-out: GluN2A PCA EC50); under 6.00 in assay [3]. Also, the maximum response (Emax) in assay [2] (setting [4]) and in assay [3] was under 100% each time.

Consider `CC(C)CC[C@@H](O)[C@@H](C)[C@H]1CC[C@H]2[C@@H]3CC[C@@H]4C[C@@](C)(O)CC[C@]4(C)[C@H]3CC[C@]12C` [Compound 36, (3S,5R,8R,9S,10S,13S,14S,17R)-17-((2S,3R)-3-hydroxy-6-methylheptan-2-yl)-3,10,13-trimethylhexadecahydro-1H-cyclopenta[a]phenanthren-3-ol], for which the pEC50 in assay [2] and in assay [3] (setting [5]) was under 6.00 throughout. The Emax in assay [2] (setting [4]) and in assay [3] (setting [6]) was under 100% each time.

Take `CC[C@]1(O)CC[C@@]2(C)C(=CC[C@H]3[C@@H]4CC[C@H]([C@H](C)[C@@H](O)CC5CCC(C)(C)CC5)[C@@]4(C)CC[C@@H]32)C1` [Compound 49, (3S,8S,9S,10R,13S,14S,17R)-17-((2S,3S)-4-(4,4-dimethylcyclohexyl)-3-hydroxybutan-2-yl)-3-ethyl-10,13-dimethyl-2,3,4,7,8,9,10,11,12,13,14,15,16,17-tetradecahydro-1H-cyclopenta[a]phenanthren-3-ol]: the negative logarithm of the EC50 (pEC50) in assay [2] and in assay [3] (setting [5]) was under 6.00 in each case. Moreover, the Emax in assay [2] (setting [4]) and in assay [3] (setting [6]) was under 100% in each case.

For `CC[C@]1(O)CC[C@@]2(C)C(=CC[C@H]3[C@@H]4CC[C@H]([C@H](C)[C@H](O)CCC(C)C)[C@@]4(C)CC[C@@H]32)C1` [Compound 52, (3S,8S,9S,10R,13S,14S,17R)-3-ethyl-17-((2S,3R)-3-hydroxy-6-methylheptan-2-yl)-10,13-dimethyl-2,3,4,7,8,9,10,11,12,13,14,15,16,17-tetradecahydro-1H-cyclopenta[a]phenanthren-3-ol], the negative-log EC50 (pEC50) in assay [2] and in assay [3] (setting [5]) was under 6.00 in each case. In addition, the maximum response (Emax) in assay [2] (setting [4]) and in assay [3] (setting [6]) was under 100% each time.
